Six compounds from patent US20250319213A1, “FUNCTIONALIZED BISAMINOTHIOL DERIVATIVES, COMPLEXES WITH THESE BISAMINOTHIOL DERIVATIVES AND USE OF SAID COMPLEXES AS DIAGNOSTICS AND THERAPEUTICS” (ABX ADVANCED BIOCHEMICAL COMPOUNDS – BIOMEDIZINISCHE …, priority 2022, published 2025) can be followed below.

For data set [1], the system named is LNCaP cells. Put plainly: Determination of the internalization (surface binding and internalized activity). It is filed as cell-based, human. The conditions noted are these: 1 h; for Internalization, 4° C. (% AD/mg Protein) / Internalization, 37° C. (% AD/mg Protein): cytosolic activity; for Internalization, 4° C. (% AD/mg Protein) / Internalization, 37° C. (% AD/mg Protein) / Binding, 4° C. (% AD/mg Protein) / Binding, 37° C. (% AD/mg Protein): 25 nM radioligand, mean ± SEM; for Binding, 4° C. (% AD/mg Protein) / Binding, 37° C. (% AD/mg Protein): surface-bound activity. As for the experimental part:
(§1) Competition, saturation and internalization assays were assessed using the high PSMA expressing human prostate carcinoma cell line LNCaP (ATCC® CRL-1740). The cells were grown as monolayer at 37° C. in a humidified atmosphere comprising 5% CO2 and 95% air in RPMI medium including 10% FCS (Merck KGAA, Germany). After washing the confluent cells twice with phosphate buffered saline (PBS) and detaching them with trypsin/EDTA (0.05%/0.02%), the cells were suspended in medium and counted (Casy TT, Omni Life Science, Germany).
For internalization LNCaP and PC3 cells were seeded, 1×10^5 cells/well in 24-well plates two days before the assay. On the day of internalization, after aspirating the medium, 100 μL of PBS and, for non-specific binding samples, 100 μL 2-PMPA (100 μM) were pipetted into the wells, followed by 400 μL medium including activity. The concentration of the ^99mTc-labeled radioligands was 25 nM. After 1 h of incubation at 37° C. and adjacent well plates at 4° C., the supernatant was removed and the cells washed with cold PBS. Surface-bound activity was stripped with 4° C. cold acid-wash buffer (0.2 M glycine, pH 2.8) for 5 min. The acid wash buffer was transferred from the plate wells to measuring tubes, as was the PBS buffer after washing once (binding on the surface). Cytosolic activity was determined after treatment with cell lysis buffer (0.1 M NaOH/1% SDS). Cell surface and cytosolic activity were measured separately in a gamma counter. Determination of protein content from cell lysate was performed using a spectrophotometer (NanoDrop, Thermo Fisher Scientific, USA) at an absorbance of 280 nm.

Data set [2] concerns the target T1, PSMA (Homo sapiens, UniProt Q04609).
T1 construct: host or cells: LNCaP human prostate carcinoma cells
Put plainly: Direct binding affinity on LNCaP cells (saturation). The conditions noted are these: [99mTc]TcO complex of the listed compound, saturation 0.3-40 nM, 1 h 37° C., mean ± SEM, read-out: Kd [nM] of [99mTc]TcO-complexes. As for the experimental part:
as §1
For saturation monolayer of LNCaP cells were seeded, 5×10^4 cells/well in 48-well plates two days before the assay. On the day of saturation, after aspirating the medium, 160 μL of medium (for ^99mTc-labeled radioligand with D-mannitol (1 mg/mL)) were pipetted per well, for non-specific binding samples including 100 μM 2-PMPA. After preincubation for 5 min, 40 μL activity ([^68Ga]Ga-PSMA-11 or ^99mTc-labeled radioligand solution) were added (total volume/well: 200 μL). Eight concentrations ranged between 0.3 and 40 nM.
After 1 hour of incubation at 37° C. both for competition and saturation samples, the supernatants were aspirated and the cells washed twice with cold PBS. The cell lawn was lysed with 500 μL NaOH/SDS (0.1 M/1%) by shaking for 3 to 5 minutes. After transferring the lysates into measuring tubes, the activity of the samples was measured in a gamma counter (2480 Automatic Gamma Counter Wizard 2, Perkin Elmer, USA).
The half maximal inhibitory concentrations (IC50) and the dissociations constants (Kd) were calculated by fitting the data using a nonlinear curve-fitting program (GraphPad Prism 9). With the Kd value of [^68Ga]Ga-PSMA-11 on LNCaP and the known concentration of [^68Ga]Ga-PSMA-11 in the competition assay the inhibition constants (Ki) was also determined with the curve-fitting program.

Data set [3] can be described thus: Product stability in DPBS at 25° C. It is filed as physicochemical. The conditions noted are these: DPBS (+Ca2+, +Mg2+), mean ± SD. Here is the method:
(§2) In brief, the freshly produced ^99mTc-labeled radioligand solution (10-20 MBq, 20-100 μL) was added to the respective medium (200-400 μL), vortexed quickly, and shook gently at the respective temperature mentioned below. At certain time points, samples were taken, diluted, and measured by radio-RP-HPLC. Hereby, investigation of plasma samples included protein precipitation with the 4-fold volume of an ice-cold mixture of methanol/water (4/1, v/v), intensive shaking (5 min) and centrifugation (14,000 rpm, 10 min), before inspection of the supernatant. In addition, the recovery of extracted activity was calculated after activity measurement of supernatant and residue by a gamma counter.

Data set [4] relates to subcutaneous LNCaP tumor xenografts. Put plainly: SPECT/CT and PET/CT imaging in LNCaP tumor bearing mice. The conditions noted are these: LNCaP tumor bearing mice after 1 h and 4 h (FIG. 5). In kind it is in vivo. As for the experimental part: A prostate cancer xenograft model was generated via subcutaneous injection of human LNCaP cells into the right shoulder of 8-12 week-old male nude mice (Rj:NMRI-Foxn1^nu/nu, Janvier Labs, Le Genest-Saint-Isle, France). Imaging studies were performed when tumors reached a diameter of >6 mm. General anesthesia was induced and maintained with inhalation of 10% (v/v) desflurane in […] oxygen/air. During anesthesia, animals were continuously warmed at 37° C.
Small animal single-photon emission computed tomography (SPECT) was performed using the nanoSPECT/CT scanner (Mediso Medical Imaging Systems) equipped with an APT63 aperture consisting of four M3 multi-pinhole collimators. Each animal received 30 MBq of ^99mTc-labeled compounds delivered in 0.2 mL of Dulbecco's phosphate-buffered saline as a single intravenous injection through a tail vein catheter. Photon emission was recorded using frame times of 60 s (1 h scan: 40-70 min), 90 s (4 h scan, 3.5-4.5 h), and 320 s (20 h scan, 18.5-21.5 h), and binned simultaneously within the 20% energy window of the 140.5 keV photopeak. With each SPECT scan, a corresponding CT image was recorded and used for anatomical referencing and attenuation correction. SPECT images were reconstructed using the Tera-Tomo™ three-dimensional (3D) algorithm at normal range with a voxel size of 0.4 mm and applying corrections for scatter attenuation, and decay.
Small animal positron emission tomography (PET) was performed using the nanoPET/CT scanner (Mediso Medical Imaging Systems). Each animal received 10 MBq of the radiolabeled reference compound [^68Ga]Ga-PSMA-11 delivered in Dulbecco's phosphate-buffered saline as a single intravenous injection through a tail vein catheter. Emission of the 511 keV annihilation photons was recorded continuously at a coincidence mode of 1:5 for 60 min following radiotracer injection. With each PET scan, a corresponding CT image was recorded and used for anatomical referencing and attenuation correction. Three-dimensional list mode data were binned using the 400-600 keV energy window. PET images of the 40-60 min time frame were reconstructed using the Tera-Tomo™ three-dimensional (3D) algorithm with a voxel size of 0.4 mm and applying corrections for random events, scatter, attenuation, and decay.
Three-dimensional VOIs were created applying fixed threshold for delineation of tumor (30%), muscle (0%); and kidneys (39%). Standardized uptake values (SUV=[MBq detected activity/mL tissue]/[MBq injected activity/g body weight], mL/g) were determined and reported as max SUV (VOI-maximum). Time-activity curves were generated and further analyzed using Prism (GraphPad Software, San Diego CA, USA).

Data set [5] can be described thus: Product stability at room temperature (without addition of any media). In kind it is physicochemical. The conditions noted are these: no media, radio-RP-HPLC. Here is the method: as §2
The mark [6] stands for this setting: normalized to fraction immediately after preparation.

T1 sequence (Q04609 whole entry): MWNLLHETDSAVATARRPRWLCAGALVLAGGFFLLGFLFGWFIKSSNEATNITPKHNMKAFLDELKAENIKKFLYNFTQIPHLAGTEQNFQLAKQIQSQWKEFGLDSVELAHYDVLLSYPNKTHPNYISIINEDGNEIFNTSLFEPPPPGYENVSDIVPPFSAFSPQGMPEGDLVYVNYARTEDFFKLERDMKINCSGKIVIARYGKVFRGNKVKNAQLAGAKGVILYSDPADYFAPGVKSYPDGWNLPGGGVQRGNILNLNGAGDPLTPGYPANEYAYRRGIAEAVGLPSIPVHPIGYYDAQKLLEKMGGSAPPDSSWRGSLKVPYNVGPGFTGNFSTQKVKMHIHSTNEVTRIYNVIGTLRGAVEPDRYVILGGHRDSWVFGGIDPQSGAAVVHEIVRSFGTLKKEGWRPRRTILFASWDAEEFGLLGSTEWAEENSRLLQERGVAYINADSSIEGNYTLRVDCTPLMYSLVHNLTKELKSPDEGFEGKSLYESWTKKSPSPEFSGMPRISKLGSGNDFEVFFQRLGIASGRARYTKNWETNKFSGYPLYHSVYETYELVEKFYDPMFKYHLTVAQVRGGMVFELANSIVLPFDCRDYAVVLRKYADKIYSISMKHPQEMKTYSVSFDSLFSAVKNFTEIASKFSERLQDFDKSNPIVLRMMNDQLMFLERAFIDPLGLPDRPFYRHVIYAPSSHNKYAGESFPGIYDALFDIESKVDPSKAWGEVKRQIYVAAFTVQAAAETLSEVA

Regarding `O=C([O-])CN(CCN(CC(=O)[O-])Cc1cc(CCC(=O)NCCCCCC(=O)NCCCC[C@H](NC(=O)N[C@@H](CCC(=O)O)C(=O)O)C(=O)O)ccc1[O-])Cc1cc(CCC(=O)O)ccc1[O-].[68Ga+3].[OH3+]` [^68Ga-PSMA11, reference compound], in data set [1], the “% Internalization, 37° C.” value worked out at 40.3%; the “Internalization, 4° C. (% AD/mg Protein)” value is recorded as 0.1 ± 0.0 % AD/mg Protein; the “Internalization, 37° C. (% AD/mg Protein)” value stood at 0.5 ± 0.2 % AD/mg Protein; the “Binding, 4° C. (% AD/mg Protein)” value is 0.3 ± 0.4 % AD/mg Protein. Further, the “Binding, 37° C. (% AD/mg Protein)” value in data set [1] worked out at 0.8 ± 0.2 % AD/mg Protein.

Consider `CC(C)(S)CNCCN(CCCCC(=O)N[C@H](Cc1ccc(O)c(I)c1)C(=O)N[C@H](Cc1ccccc1)C(=O)N[C@H](CCCCNC(=O)CCCCCCC(=O)NCCCC[C@H](NC(=O)N[C@@H](CCC(=O)O)C(=O)O)C(=O)O)C(=O)O)CC(C)(C)S` [Compound 4], for which the Kd in data set [2] is 4.7 ± 3.2 nM.

As for `CC1(C)CN(CCCCC(=O)N[C@H](Cc2ccc(O)c(I)c2)C(=O)N[C@H](Cc2ccccc2)C(=O)N[C@H](CCCCNC(=O)CCCCCCC(=O)NCCCC[C@H](NC(=O)N[C@@H](CCC(=O)O)C(=O)O)C(=O)O)C(=O)O)CC[N]2CC(C)(C)[S][99Tc]2(=[O])[S]1` (some centres unmarked) [[^99mTc]TcO-4], in data set [3] (setting [6]), the “Fraction of radioligand in DPBS at 25° C., 1 h” value worked out at 88.4 ± 14.8%; the “Fraction of radioligand in DPBS at 25° C., 2 h” value was 100 ± 1.8%; the “Fraction of radioligand in DPBS at 25° C., 20 h” value came to 98.0 ± 1.0%. In addition, in data set [3] (4 h, normalized to fraction immediately after preparation), the “Fraction of radioligand in DPBS at 25° C., 4 h” value came out at 105.5%. For the same compound, in data set [1], the “% Internalization, 37° C.” value is recorded as 39.2%; the “Internalization, 4° C. (% AD/mg Protein)” value was 0.2 ± 0.0 % AD/mg Protein; the “Internalization, 37° C. (% AD/mg Protein)” value was found to be 1.9 ± 0.9 % AD/mg Protein; the “Binding, 4° C. (% AD/mg Protein)” value was 2.2 ± 0.1 % AD/mg Protein. The “Binding, 37° C. (% AD/mg Protein)” value in data set [1] is on record as 2.9 ± 0.5 % AD/mg Protein.

Take `CC(C)(S)CNCCN(CCCCC(=O)N[C@@H](Cc1ccccc1)C(=O)N[C@@H](Cc1ccccc1)C(=O)N[C@H](CCCCNC(=O)CCCCCCC(=O)NCCCC[C@H](NC(=O)N[C@@H](CCC(=O)O)C(=O)O)C(=O)O)C(=O)O)CC(C)(C)S` [Compound 2]: in data set [2], the Kd is 32.1 ± 24.3 nM.

Consider `O=C(O)CC[C@H](NC(=O)N[C@@H](CCCCNC(=O)CCCCCCC(=O)NCCCC[C@@H](NC(=O)[C@H](CCC(=O)O)NC(=O)[C@H](CCC(=O)O)NC(=O)CCC(=O)NCCCN(CCS)CCNCCS)C(=O)O)C(=O)O)C(=O)O` [Compound 6], for which, in data set [2], the Kd worked out at 7.3 nM.

Regarding `O=C(O)CC[C@H](NC(=O)N[C@@H](CCCCNC(=O)CCCCCCC(=O)NCCCC[C@@H](NC(=O)[C@H](CCC(=O)O)NC(=O)[C@H](CCC(=O)O)NC(=O)CCC(=O)NCCCN1CC[S][99Tc]2(=[O])[S]CC[N]2CC1)C(=O)O)C(=O)O)C(=O)O` (some centres unmarked) [[^99mTc]TcO-6], in data set [4], the “tumor-to-liver ratios among the [99mTc]-labeled radioligands” value is “a marked or a significant increase” and the “tumor-to-muscle ratios among the [99mTc]-labeled radioligands” value is “a marked or a significant increase”. Also, in data set [3] (setting [6]), the “Fraction of radioligand in DPBS at 25° C., 1 h” value is reported as 75.9 ± 0.2%; the “Fraction of radioligand in DPBS at 25° C., 2 h” value is reported as 74.4 ± 0.1%; the “Fraction of radioligand in DPBS at 25° C., 20 h” value was found to be 18.7%. The “Fraction of radioligand in DPBS at 25° C., after 6 h instead of 4 h” value in data set [3] (6 h (footnote &), normalized) worked out at 72.3 ± 0.9%^&. The “Fraction of radioligand at indicated time point after preparation, 0 h” value in data set [5] (0 h) amounted to 89%. The “Fraction of radioligand at indicated time point after preparation, 2 h” value in data set [5] (2 h) turned out to be 87%. Also, the “Fraction of radioligand at indicated time point after preparation, 4 h” value in data set [5] (4 h) is 88%. Further, the “Fraction of radioligand at indicated time point after preparation, 6 h” value in data set [5] (6 h) worked out at 85%. Also, in data set [1], the “% Internalization, 37° C.” value was 38.5%; the “Internalization, 4° C. (% AD/mg Protein)” value amounted to 0.2 ± 0.0 % AD/mg Protein; the “Internalization, 37° C. (% AD/mg Protein)” value is listed as 2.9 ± 0.2 % AD/mg Protein; the “Binding, 4° C. (% AD/mg Protein)” value is 2.5 ± 0.4 % AD/mg Protein. The “Binding, 37° C. (% AD/mg Protein)” value in data set [1] came to 4.7 ± 0.2 % AD/mg Protein.

For orientation: Kd means a measure of binding affinity in units of concentration.
